Where two headings read alike, the source gives them in different places.
Legend:
[1] = biological target: GDP-bound KRAS wild-type protein (Homo sapiens, UniProt P01116); assay: Binding to KRAS by surface plasmon resonance (SPR), dissociation constant KD
Procedure, shortened: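 Recombinant RAS proteins bearing a biotinylated Avi tag and loaded with GDP served as the captured ligand, recaptured fresh every cycle. Binding responses were referenced to an uncoated surface and a buffer-only blank cycle. Dissociation constants were obtained by 1:1 model fitting at 30°C.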

[2] = biological target: GDP-bound NRAS wild-type protein (Homo sapiens, UniProt P01111); assay: Binding to NRAS by surface plasmon resonance (SPR), KD and KD ratio to KRAS
Chain of GDP-bound NRAS wild-type protein (P01111 whole entry): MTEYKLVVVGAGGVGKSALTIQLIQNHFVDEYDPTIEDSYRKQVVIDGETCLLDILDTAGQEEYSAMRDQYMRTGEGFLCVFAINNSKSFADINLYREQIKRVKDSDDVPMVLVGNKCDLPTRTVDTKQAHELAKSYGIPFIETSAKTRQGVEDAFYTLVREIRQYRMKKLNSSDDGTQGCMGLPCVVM
Procedure, shortened: (§1)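 Compound binding is evaluated by SPR single-cycle kinetics, with concentrations added intermittently from low to high for 75 s each. Target surfaces carry GDP-loaded biotinylated Avi-RAS at about 100–300 RU, regenerated after each cycle; temperature 30°C. A 1:1 binding model gives KD.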

HRAS wild-type protein = HRAS wild-type protein (Homo sapiens, UniProt P01112); assay: Binding to HRAS by surface plasmon resonance (SPR), KD and KD ratio to KRAS
Chain of HRAS wild-type protein (P01112 whole entry): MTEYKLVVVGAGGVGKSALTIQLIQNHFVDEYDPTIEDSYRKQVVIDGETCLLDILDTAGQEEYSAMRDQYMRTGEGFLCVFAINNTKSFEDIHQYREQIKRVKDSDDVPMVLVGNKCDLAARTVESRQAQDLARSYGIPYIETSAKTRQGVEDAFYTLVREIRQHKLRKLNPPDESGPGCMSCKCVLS
Procedure, shortened: as §1

[3] = system: human lung cancer strain NCI-H441; assay: NCI-H441 cell proliferation inhibitory activity (CellTiter-Glo, 4 days); format: cell-based; details: read-out: NCl-H441 IC50
Procedure, shortened: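 Proliferation was scored by […] measured after the reagent was added to cultures kept at 37°C in 5% carbon dioxide.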

[4] = ratio of KD for GDP-bound NRAS wild-type protein to KD for KRAS
[5] = ratio of KD for HRAS wild-type protein to KD for KRAS
[6] = Single Cycle Kinetics, 1:1 binding model
[7] = ratio of KD with respect to GDP-bound NRAS wild-type protein to KD with respect to KRAS
[8] = ratio of KD with respect to HRAS wild-type protein to KD with respect to KRAS
[9] = 50% proliferation inhibitory concentration, four days

Chain of GDP-bound KRAS wild-type protein (P01116 1-188 isoform P01116-2): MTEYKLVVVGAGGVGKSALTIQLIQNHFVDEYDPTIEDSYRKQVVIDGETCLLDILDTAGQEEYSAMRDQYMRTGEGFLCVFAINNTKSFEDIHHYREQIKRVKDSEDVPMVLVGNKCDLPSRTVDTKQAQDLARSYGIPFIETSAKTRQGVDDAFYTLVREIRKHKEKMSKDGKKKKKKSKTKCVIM

Kd ([1]; Single Cycle Kinetics) [nM] | IC50 ([3]; NCI-H441 cells, 4 days) [nM] | Kd [1, 6] [nM] | IC50 [3, 9] [nM] | Kd ([1]; 1:1 binding model) [nM] | SMILES | NRAS /KRAS [2, 4] | HRAS /KRAS (HRAS wild-type protein; [5]) | NRAS /KRAS [2, 7] | HRAS /KRAS (HRAS wild-type protein; [8])
0.6 | 23.3 |  |  |  | CCCO[C@@H]1C[C@H]2C(=O)NC3(CC(C)(C)C3)C(=O)N(C)[C@@H](C3CCCC3)C(=O)N(C)[C@H](C(=O)N(C)CC)CC(=O)N(C)[C@@H](COCC)C(=O)N[C@@H]([C@@H](C)CC)C(=O)N3C[C@@H](F)C[C@H]3C(=O)N(C)[C@H]3C/C=C\CCN(C3=O)[C@@H](Cc3ccc(C)cc3)C(=O)N(C)CC(=O)N[C@@H](CCc3ccc(C(F)(F)F)c(Cl)c3)C(=O)N2C1 [PP3465] | A (a compound having 10 or more and less than 20 is denoted as A) | A (a compound having 10 or more and less than 20 is denoted as A) |  | 
0.25 | 9.3 |  |  |  | CCC[C@H]1C(=O)N[C@@H]([C@@H](C)CC)C(=O)N(C2CC2)CC(=O)N(C)[C@H]2C/C=C\CCN(C2=O)[C@@H](Cc2ccc(C)cc2)C(=O)N(C)CC(=O)N[C@@H](CCc2ccc(C(F)(F)F)c(Cl)c2)C(=O)N2CC[C@H](OC)[C@H]2C(=O)N(C)C2(CCC2)C(=O)N(C)[C@@H](C2CCCC2)C(=O)N(C)[C@H](C(=O)N(C)C)CC(=O)N1C [PP3233] | A (a compound having 10 or more and less than 20 is denoted as A) | A (a compound having 10 or more and less than 20 is denoted as A) |  | 
 |  | 0.17 | 9.7 |  | CCO[C@@H]1C[C@H]2C(=O)NC3(CCC3)C(=O)N(C)[C@@H](C(CC)CC)C(=O)N(C)[C@H](C(=O)N(C)C)CC(=O)N(C)[C@@H](CC(C)C)C(=O)N[C@@H]([C@@H](C)CC)C(=O)N(C)CC(=O)N(C)[C@H]3C/C=C\CCN(C3=O)[C@@H](Cc3ccc(C(F)(F)F)cc3)C(=O)N(C)CC(=O)N[C@@H](CCc3cc(F)c(C(F)(F)F)c(F)c3)C(=O)N2C1 [PP1201] |  |  | AA (a compound having 20 or more is denoted as AA) | A (a compound having 10 or more and less than 20 is denoted as A)
 | 6.3 |  |  | 0.072 | CCOC[C@H]1C(=O)N[C@@H]([C@@H](C)CC)C(=O)N(C)CC(=O)N(C)[C@H]2C/C=C\CCN(C2=O)[C@@H](Cc2ccc(C)cc2)C(=O)N(C)CC(=O)N[C@@H](CCc2ccc(C(F)(F)F)c(Cl)c2)C(=O)N2C[C@H](OCC)C[C@H]2C(=O)NC2(CC(C)(C)C2)C(=O)N(C)[C@@H](C2CCCC2)C(=O)N(C)[C@H](C(=O)N(C)C)CC(=O)N1C [PP2395] | A (a compound having 10 or more and less than 20 is denoted as A) | B (a compound having 3 or more and less than 10 is denoted as B) |  | 
 |  | 0.12 | 28.9 |  | CCO[C@@H]1C[C@H]2C(=O)NC3(CCC3)C(=O)N(C)[C@@H](C3CCCC3)C(=O)N(C)[C@H](C(=O)N(C)C)CC(=O)N(C)[C@@H](CC3CC3)C(=O)N[C@@H]([C@@H](C)CC)C(=O)N(C)CC(=O)N(C)[C@H]3C/C=C\CCN(C3=O)[C@@H](CC3CCC(F)(F)CC3)C(=O)N(C)CC(=O)N[C@@H](CCc3cc(F)c(C(F)(F)F)c(F)c3)C(=O)N2C1 [PP1447] |  |  | A (a compound having 10 or more and less than 20 is denoted as A) | A (a compound having 10 or more and less than 20 is denoted as A)
0.069 | 2.5 |  |  |  | CCC[C@H]1C(=O)N[C@@H](C2CCCC2)C(=O)N(C)CC(=O)N(C)[C@H]2C/C=C\CCN(C2=O)[C@@H](Cc2ccc(C(F)(F)F)cc2)C(=O)N(C)CC(=O)N[C@@H](CCc2ccc(C(F)(F)F)c(OC)c2)C(=O)N2CC3(CC3)C[C@H]2C(=O)N(C)C2(CCC2)C(=O)N(C)[C@@H](CC(C)(C)C)C(=O)N(C)[C@H](C(=O)N(C)C)CC(=O)N1C [PP3317] | B (a compound having 3 or more and less than 10 is denoted as B) | B (a compound having 3 or more and less than 10 is denoted as B) |  | 
 | 60.1 |  |  | 0.5 | CCOC[C@H]1C(=O)N[C@@H]([C@@H](C)CC)C(=O)N(C)CC(=O)N(C)[C@H]2C/C=C\CCN(C2=O)[C@@H](Cc2ccc(C)cc2)C(=O)N(C)CC(=O)N[C@@H](CCc2cc(F)c(C(F)(F)F)c(F)c2)C(=O)N2C[C@@H](C)C[C@H]2C(=O)NC2(CC(C)(C)C2)C(=O)N(C)[C@@H](C2CCCC2)C(=O)N(C)[C@H](C(=O)N(CC)CC)CC(=O)N1C [PP2407] | A (a compound having 10 or more and less than 20 is denoted as A) | A (a compound having 10 or more and less than 20 is denoted as A) |  | 
 | 17.2 |  |  | 0.13 | CCOC[C@H]1C(=O)N[C@@H]([C@@H](C)CC)C(=O)N(C)CC(=O)N(C)[C@H]2C/C=C\CCN(C2=O)[C@@H](Cc2ccc(C)cc2)C(=O)N(C)CC(=O)N[C@@H](CCc2ccc(C(F)(F)F)c(OC)c2)C(=O)N2C[C@@H](C)C[C@H]2C(=O)NC2(CC(C)(C)C2)C(=O)N(C)[C@@H](C2CCCC2)C(=O)N(C)[C@H](C(=O)N(C)C)CC(=O)N1C [PP2505] | A (a compound having 10 or more and less than 20 is denoted as A) | B (a compound having 3 or more and less than 10 is denoted as B) |  | 
1.2 | 49.8 |  |  |  | C#CC[C@H]1C(=O)N[C@@H]([C@@H](C)CC)C(=O)N2CCCC[C@H]2C(=O)N(C)[C@H]2C/C=C\CCN(C2=O)[C@@H](Cc2ccc(C(F)(F)F)cc2)C(=O)N(C)CC(=O)N[C@@H](CCc2cc(F)c(C(F)(F)F)c(F)c2)C(=O)N2C[C@H](OCC)C[C@H]2C(=O)N(C)C2(CCC2)C(=O)N(C)[C@@H](C2CCCC2)C(=O)N(C)[C@H](C(=O)N(C)C)CC(=O)N1C [PP3259] | A (a compound having 10 or more and less than 20 is denoted as A) | B (a compound having 3 or more and less than 10 is denoted as B) |  | 
 |  | 0.032 | 18.4 |  | CC[C@H](C)[C@@H]1NC(=O)[C@H](CC(C)C)N(C)C(=O)C[C@@H](C(=O)N2CCOCC2)N(C)C(=O)[C@H](C2CCCC2)N(C)C(=O)C2(CCC2)NC(=O)[C@@H]2C[C@@H](OCC(C)C)CN2C(=O)[C@H](CCc2cc(F)c(C(F)(F)F)c(F)c2)NC(=O)CN(C)C(=O)[C@H](Cc2ccc(C(F)(F)F)cc2)N2CCCC[C@@H](C2=O)N(C)C(=O)CN(C)C1=O [PP1160] |  |  | B (a compound having 3 or more and less than 10 is denoted as B) | B (a compound having 3 or more and less than 10 is denoted as B)
 | 212 |  |  | 4.1 | CCC[C@H]1C(=O)N[C@@H](CC(C)C)C(=O)N2C[C@@H](OC)C[C@H]2C(=O)N(C)[C@H]2C/C=C\CCN(C2=O)[C@@H](Cc2ccc(C)cc2)C(=O)N(C)CC(=O)N[C@@H](CCc2ccc(C(F)(F)F)c(Cl)c2)C(=O)N2C[C@H](OCC)C[C@H]2C(=O)NC2(CC(C)(C)C2)C(=O)N(C)[C@@H](C2CCCC2)C(=O)N(C)[C@H](C(=O)N(C)C)CC(=O)N1C [PP2555] | A (a compound having 10 or more and less than 20 is denoted as A) | B (a compound having 3 or more and less than 10 is denoted as B) |  | 
 |  | 0.096 | 15.2 |  | C=CC[C@H]1C(=O)N[C@@H]([C@@H](C)CC)C(=O)N(C)CC(=O)N(C)[C@H]2C/C=C\CCN(C2=O)[C@@H](CC2CCC(F)(F)CC2)C(=O)N(C)CC(=O)N[C@@H](CCc2cc(F)c(C(F)(F)F)c(F)c2)C(=O)N2C[C@H](OCC)C[C@H]2C(=O)NC2(CCC2)C(=O)N(C)[C@@H](C2CCCC2)C(=O)N(C)[C@H](C(=O)N(C)C)CC(=O)N1C [PP1454] |  |  | A (a compound having 10 or more and less than 20 is denoted as A) | A (a compound having 10 or more and less than 20 is denoted as A)
 | 172 |  |  | 1.1 | CCOC[C@H]1C(=O)N[C@@H]([C@@H](C)CC)C(=O)N2CCC[C@H]2C(=O)N(C)[C@H]2C/C=C\CCN(C2=O)[C@@H](CC2CCCCC2)C(=O)N(C)CC(=O)N[C@@H](CCc2ccc(C(F)(F)F)c(OC)c2)C(=O)N2C[C@@H](C)C[C@H]2C(=O)N(C)C2(CCC2)C(=O)N(C)[C@@H](C2CCCC2)C(=O)N(C)[C@H](C(=O)N(C)C)CC(=O)N1C [PP2375] | A (a compound having 10 or more and less than 20 is denoted as A) | B (a compound having 3 or more and less than 10 is denoted as B) |  | 
 | 86.7 |  |  | 1.1 | CCC(CC)[C@H]1C(=O)N(C)[C@H](C(=O)N(C)C)CC(=O)N(C)[C@@H](COC)C(=O)N[C@@H]([C@@H](C)CC)C(=O)N2CCC[C@H]2C(=O)N(C)[C@H]2C/C=C\CCN(C2=O)[C@@H](Cc2ccc(C(F)(F)F)cc2)C(=O)N(C)CC(=O)N[C@@H](CCc2ccc(Cl)c(Cl)c2)C(=O)N2C[C@H](OC3CCC3)C[C@H]2C(=O)NC2(CC(C)(C)C2)C(=O)N1C [PP2645] | AA (a compound having 20 or more is denoted as AA) | A (a compound having 10 or more and less than 20 is denoted as A) |  | 
0.48 | 27.2 |  |  |  | CCC[C@H]1C(=O)N[C@@H]([C@@H](C)CC)C(=O)N(C)CC(=O)N(C)[C@H]2C/C=C\CCN(C2=O)[C@@H](Cc2ccc(C)cc2)C(=O)N(C)CC(=O)N[C@@H](CCc2ccc(C(F)(F)F)c(Cl)c2)C(=O)N2CC3(CC3)C[C@H]2C(=O)NC2(CCC2)C(=O)N(C)[C@@H](C(CC)CC)C(=O)N(C)[C@H](C(=O)N(C)C)CC(=O)N1C [PP3424] | AA (a compound having 20 or more is denoted as AA) | A (a compound having 10 or more and less than 20 is denoted as A) |  | 
